Results from US5310916A, “Trifunctional agents useful as irreversible inhibitors of A1-adenosine receptors” (The United States of America as represented by the …, priority 1990, dated 1994).
≈ marks a conversion by molar mass, not a printed value.

What was measured:
[1] = target: T1, A2-adenosine receptors (Rattus norvegicus, UniProt P30543); assay: Competitive binding assay at A2 receptors ([3H]CGS21680); settings: [3H]CGS21680, rat striatum; read-out: Ki at central rat receptors, A2
T1 construct: adenosine receptors in rat striatal membranes were measured as described; from tissue; host or cells: rat striatal membranes
Procedure: The Ki values (in nM) for A1 and A2 binding in rat striatum are presented in Table 4 with the relative selectivities expressed as the ratio of Ki values. […] Table 4 also indicates the synthesis method used for each compound therein.
(§1) A1 ligand = [^3 H]RPIA, A2 ligand = [^3 H]CGS21680
(§2) Inhibition of binding by a range of concentrations of an adenosine derivative was assessed in triplicate in at least three separate experiments. At least seven different concentrations spanning three orders of magnitude, adjusted appropriate for the IC50 of each compound were used. IC50 values Ci/mmol) or [^3 H]CGS21680. Inhibition of [^3 H]NECA binding of to A2 -adenosine receptors in rat striatal membranes were measured as described, except that 5 mM theophylline was used to define non-specific binding. N^6 -Cyclopentyladenosine was present at 50 nM to inhibit binding of the ligand at A1 -adenosine receptors. IC50 values were converted to Ki -values as described.

[2] = target: T2, A1-adenosine receptors (Rattus norvegicus, UniProt P25099); assay: Competitive binding assay at A1 receptors ([3H]RPIA); settings: for Ki: [3H]RPIA, rat brain membranes, read-out: Ki at central rat receptors, A1; for A2/A1 ratio: ratio of Ki values A2/A1
T2 construct: adenosine receptors in rat cerebral cortex membranes was assayed as described; from tissue; b141 says rat striatum
T2 sequence (P25099 1-326): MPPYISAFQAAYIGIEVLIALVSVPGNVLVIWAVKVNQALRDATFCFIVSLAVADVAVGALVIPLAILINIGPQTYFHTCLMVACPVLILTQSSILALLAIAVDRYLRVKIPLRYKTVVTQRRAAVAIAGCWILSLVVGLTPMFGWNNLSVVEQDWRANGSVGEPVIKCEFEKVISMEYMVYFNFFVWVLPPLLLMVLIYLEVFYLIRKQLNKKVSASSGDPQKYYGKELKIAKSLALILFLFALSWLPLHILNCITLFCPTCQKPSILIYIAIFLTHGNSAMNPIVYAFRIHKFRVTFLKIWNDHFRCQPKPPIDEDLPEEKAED
Procedure: Table 4 also indicates the synthesis method used for each compound therein.
as §1, §2

[3] = Solubility of analogs in pH 7.2 phosphate buffer; type: physicochemical; settings: aqueous buffer; pH 7.2 phosphate buffer with DMSO, 2-3 h room temperature, absorbance at 310 nm, mean of 3
Procedure: The method for determining the solubilities of the xanthines is detailed in the Experimental Section below.
Solubility of Analogs. To 675 uL of pH 7.2 phosphate buffer was added 25 uL of a DMSO solution (approx. 10 mM) of the xanthine to be assayed. This was stirred for one minutes by a vortex mixer then left at room temperature for 2-3 hours. In each case (except where noted) a fine precipitate resulted which was collected by centrifugation at the end of the waiting period. After the dissolution period, a 100 uL aliquot of the supernatant was added to 1.0 mL of methanol and the absorbance measured at 310 nm using an extinction coefficient of 28,180 for calculating the concentration. Each xanthine was assayed 3 times and the concentration represent the averages of these 3 determinations.

[4] = target: T2, A1-adenosine receptors; type: binding; settings: 0.75 h; for inhibition at 0.02 µM: 20 nM
Procedure: The degree of irreversible binding was determined as previously described and the percent inhibition of selected compounds is presented in Table 5.
Irreversible Binding to Rat Brain. For studies of irreversible incorporation, membranes were prepared as described above and then incubated with the indicated (Tables I and II) concentration of ligand for 45 minutes at 37° C. […] Membranes were then suspended in Buffer A containing 10^-4 M 3-isobutyl-1-methylxanthine (IBMX) and incubated at 25° C. for 18 hours with shaking. Membranes were then washed twice with Buffer A, treated with adenosine deaminase as described above, and used in radioligand binding studies as described above.
The long treatment with IBMX was found necessary to remove all of the non-incorporated ligands from membranes. Multiple washes (up to 8) with buffer alone were insufficient to remove all the reversibly bound ligands.

[5] = target: rat brain A1-receptors; settings: prior work; cited from earlier work

T1 sequence (P30543 whole entry): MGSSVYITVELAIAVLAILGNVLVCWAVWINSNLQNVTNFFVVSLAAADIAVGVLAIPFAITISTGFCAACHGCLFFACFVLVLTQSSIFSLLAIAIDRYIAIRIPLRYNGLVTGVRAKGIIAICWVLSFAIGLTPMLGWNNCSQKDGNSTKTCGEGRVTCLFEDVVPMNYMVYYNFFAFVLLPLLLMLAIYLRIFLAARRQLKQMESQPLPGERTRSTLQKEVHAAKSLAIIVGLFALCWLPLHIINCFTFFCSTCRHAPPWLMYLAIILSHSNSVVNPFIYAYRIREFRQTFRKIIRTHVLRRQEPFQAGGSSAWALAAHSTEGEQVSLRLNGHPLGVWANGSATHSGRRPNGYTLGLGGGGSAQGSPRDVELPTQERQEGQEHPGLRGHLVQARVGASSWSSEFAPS

Compound: CCCn1c(=O)c2[nH]c(-c3ccc(OCC(=O)NCCNC(=S)Nc4cccc(N=C=S)n4)cc3)nc2n(CCC)c1=O [Compound 8, 1,3-Dipropyl-8-(4-(((((2-((((6-isothiocyanatopyrido)amino)thiocarbonyl)amino)ethyl)amino)carbonyl)methyl)oxy)phenyl)xanthine]
- Ki [1]: 432 ± 20 nM
- Ki [2]: 16.2 ± 1.96 nM
- A2/A1 ratio [2]: 27
- solubility [3]: 17.5 ± 0.06 µM (≈ 10.9 µg/mL)

Compound: CCCn1c(=O)c2[nH]c(-c3ccc(OCC(=O)NCCNC(=S)Nc4cc(N=C=S)cc(NC(=S)NCC(=O)OC(C)(C)C)c4)cc3)nc2n(CCC)c1=O
- Ki [1]: 3290 nM
- Ki [2]: 8.3 ± 2.2 nM
- A2/A1 ratio [2]: 397

Compound: CCCn1c(=O)c2[nH]c(-c3ccc(OCC(=O)NCCNC(=S)Nc4cc(N=C=S)cc(N=C=S)c4)cc3)nc2n(CCC)c1=O [Compound 23, 1,3-Dipropyl-8-(4-(((((2-((((3,5-diisothiocyanatophenyl)amino)thiocarbonyl)amino)ethyl)amino)carbonyl)methyl)oxy)phenyl)-xanthine]
- Ki [1]: 3540 ± 936 nM
- Ki [2]: 3.96 ± 0.59 nM
- A2/A1 ratio [2]: 894

Compound: CCCn1c(=O)c2[nH]c(-c3ccc(OCC(=O)NCCNC(=S)Nc4cc(N=C=S)cc(C(=O)NCCNC(=O)CBr)c4)cc3)nc2n(CCC)c1=O [R' = CONH(CH2)2 NHCOCH2 Br]
- Ki [1]: 688 nM
- Ki [2]: 15.8 nM
- A2/A1 ratio [2]: 44

Compound: CCCn1c(=O)c2[nH]c(-c3ccc(OCC(=O)NCCNC(=S)Nc4cc(N=C=S)cc(C(=O)NCCNC(C)=O)c4)cc3)nc2n(CCC)c1=O [Compound 16, 1,3-Dipropyl-8-(4-(((((2-((((3-(2-acetylaminoethylcarboxamide)-5-isothiocyanatophenyl)amino)thiocarbonyl)amino)ethyl)amino)carbonyl)methyl)oxy)phenyl)xanthine]
- Ki [1]: 247 ± 36 nM
- Ki [2]: 7.01 ± 0.52 nM
- A2/A1 ratio [2]: 35
- solubility [3]: > 1000 µM

Compound: CCCn1c(=O)c2[nH]c(-c3ccc(OCC(=O)NCCNC(=S)Nc4cc(N=C=S)cc(C(=O)NCCNC(=O)CCc5ccc(O)cc5)c4)cc3)nc2n(CCC)c1=O [Compound 17]
- Ki [1]: 1400 nM
- Ki [2]: 7.08 ± 1.91 nM
- A2/A1 ratio [2]: 198

Compound: CCCn1c(=O)c2[nH]c(-c3ccc(OCC(=O)NCCNC(=S)Nc4cc(N=C=S)cc(C(=O)NCCNc5ccc([N+](=O)[O-])c6nonc56)c4)cc3)nc2n(CCC)c1=O [R' = CONH(CH2)2 NH-NBD]
- Ki [1]: 1330 nM
- Ki [2]: 18.1 nM
- A2/A1 ratio [2]: 73

Compound: CCCn1c(=O)c2[nH]c(-c3ccc(OCC(=O)NCCNC(=S)Nc4cc(N=C=S)cc(C(N)=O)c4)cc3)nc2n(CCC)c1=O [Compound 13, 1,3-Dipropyl-8-(4-(((((2-((((3-carboxamide-5-isothiocyanatophenyl)amino)thiocarbonyl)amino)ethyl)amino)carbonyl)methyl)oxy)phenyl)xanthine]
- Ki [1]: 365 ± 35 nM
- inhibition at 0.005 µM ([4]; 5 nM): 68 ± 7.5%
- inhibition at 0.02 µM [4]: 90.3 ± 7%
- Ki [2]: 9.47 ± 2.99 nM
- A2/A1 ratio [2]: 39
- solubility [3]: 31.4 ± 0.39 µM (≈ 20.8 µg/mL)

Compound: CCCn1c(=O)c2[nH]c(-c3ccc(OCC(=O)NCCNC(=S)Nc4cc(N=C=S)cc(C(=O)NCCN(C)C)c4)cc3)nc2n(CCC)c1=O [Compound 14, 1,3-Dipropyl-8-(4-(((((2-((((3-(2-dimethylaminoethylcarboxamide)-5-isothiocyanatophenyl)amino)thiocarbonyl)amino)ethyl)amino)carbonyl)methyl)oxy)phenyl)xanthine]
- Ki [1]: 497 ± 74 nM
- inhibition at 0.02 µM [4]: 30 ± 8.7%
- inhibition at 0.05 µM ([4]; 50 nM): 46.3 ± 21.8%
- Ki [2]: 7.62 ± 2.19 nM
- A2/A1 ratio [2]: 65
- solubility [3]: 28.7 ± 0.03 µM (≈ 21.1 µg/mL)

Compound: CCCn1c(=O)c2[nH]c(-c3ccc(OCC(=O)NCCNC(=S)Nc4cc(N=C=S)cc(NC(=S)NCCN(C)C)c4)cc3)nc2n(CCC)c1=O [Compound 24]
- Ki [1]: 1910 ± 303 nM
- Ki [2]: 77.2 ± 2.5 nM
- A2/A1 ratio [2]: 25

Compound: CCCn1c(=O)c2[nH]c(-c3ccc(OCC(=O)NCCNC(=S)Nc4cc(N=C=S)cc(C(=O)OCC)c4)cc3)nc2n(CCC)c1=O [Compound 11, 1,3-Dipropyl-8-(4-(((((2-((((3-carbethoxy-5-isothiocyanatophenyl)amino)thiocarbonyl)amino)ethyl)amino)carbonyl)methyl)oxyl)phenyl)xanthine]
- Ki [1]: 815 ± 145 nM
- Ki [2]: 41.6 ± 8.2 nM
- A2/A1 ratio [2]: 19
- solubility [3]: 9.33 ± 0.43 µM (≈ 6.46 µg/mL)

Compound: CCCn1c(=O)c2[nH]c(-c3ccc(OCC(=O)NCCNC(=S)Nc4cc(N=C=S)cc(NC(=S)NCCNC(C)=O)c4)cc3)nc2n(CCC)c1=O [Compound 25]
- Ki [1]: 2540 ± 283 nM
- Ki [2]: 57.6 ± 15.7 nM
- A2/A1 ratio [2]: 44
- solubility [3]: > 100 µM

Compound: CCCn1c(=O)c2[nH]c(-c3ccc(OCC(=O)NCCNC(=S)Nc4cc(N=C=S)cc(C(=O)OC(=O)c5cc(N=C=S)cc(N=C=S)c5)c4)cc3)nc2n(CCC)c1=O
- Ki [1]: 493 ± 200 nM
- Ki [2]: 45 ± 3.5 nM
- A2/A1 ratio [2]: 11

Compound: CCCn1c(=O)c2[nH]c(-c3ccc(OCC(=O)NCCNC(=S)Nc4cccc(N=C=S)c4)cc3)nc2n(CCC)c1=O [Compound 7]
- Ki [1]: 343 nM
- Ki [5]: 2.4 nM
- Ki [2]: 2.39 ± 0.35 nM
- A2/A1 ratio [2]: 144
- solubility [3]: 90.1 ± 0.56 µM (≈ 55.9 µg/mL)

Compound: CCCn1c(=O)c2[nH]c(-c3ccc(OCC(=O)NCCNC(=S)Nc4cc(N=C=S)cc(NC(=S)NCCNC(=O)c5ccc(N=[N+]=[N-])cc5O)c4)cc3)nc2n(CCC)c1=O
- Ki [1]: 341 nM
- Ki [2]: 25.2 nM
- A2/A1 ratio [2]: 14

Compound: CCCn1c(=O)c2[nH]c(-c3ccc(OCC(=O)NCCN)cc3)nc2n(CCC)c1=O [XAC, 8-[4-[[[[(2-aminoethyl)-amino]carbonyl]methyl]oxy]phenyl]-1,3-dipropylxanthine]
- Ki [5]: 1.2 nM

Compound: CCCn1c(=O)c2[nH]c(-c3ccc(OCC(=O)NCCNC(=S)Nc4cc(CO)cc(N=C=S)c4)cc3)nc2n(CCC)c1=O [Compound 9, 1,3-Dipropyl-8-(4-(((((2-((((3-hydroxymethyl-5-isothiocyanatophenyl)amino)thiocarbonyl)amino)ethyl)amino)carbonyl)methyl)oxyl)phenyl)xanthine]
- Ki [1]: 433 ± 45 nM
- Ki [2]: 13.4 ± 2.64 nM
- A2/A1 ratio [2]: 32
- solubility [3]: 10.8 ± 0.03 µM (≈ 7.03 µg/mL)

Compound: CCCn1c(=O)c2[nH]c(-c3ccc(OCC(=O)NCCNC(=S)Nc4ccc(N=C=S)cc4)cc3)nc2n(CCC)c1=O [p-DITC-XAC (2b)]
- Ki [5]: 6.6 nM

Compound: CCCn1c(=O)c2[nH]c(-c3ccc(OCC(=O)NCCNC(=S)Nc4cc(N=C=S)cc(NC(=S)NCCNc5ccc(N=[N+]=[N-])cc5[N+](=O)[O-])c4)cc3)nc2n(CCC)c1=O
- Ki [1]: 842 nM
- Ki [2]: 27.3 ± 7.2 nM
- A2/A1 ratio [2]: 31

Compound: CCCn1c(=O)c2[nH]c(-c3ccc(OCC(=O)NCCNC(=S)Nc4cc(N=C=S)cc(NC(=S)NCCNC(=S)Nc5ccc(C(=O)O)c(-c6c7ccc(=O)cc-7oc7cc(O)ccc67)c5)c4)cc3)nc2n(CCC)c1=O [R' = NHCSNH(CH2)2 NHCSNH-fluorescein]
- Ki [1]: 1790 nM
- Ki [2]: 234 ± 32.5 nM
- A2/A1 ratio [2]: 8

Compound: CCCn1c(=O)c2[nH]c(-c3ccc(OCC(=O)NCCNC(=S)Nc4cc(N=C=S)cc(C(=O)NCCNC(=O)CCCC[C@@H]5SC[C@@H]6NC(=O)N[C@@H]65)c4)cc3)nc2n(CCC)c1=O [R' = CONH(CH2)2 NHCO-biotin]
- Ki [1]: 11500 nM
- Ki [2]: 20.1 ± 3.3 nM
- A2/A1 ratio [2]: 572
